Experimental data taken from patent publication US7166581B1, “Treatment of chemotherapeutic agent and antiviral agent toxicity with acylated pyrimidine nucleosides” (Wellstat Therapeutics Corporation, priority 1987, dated 2007).

Experiments:
[1] = system: hematopoietic system (AZT toxicity); test: Oral TAU vs hematopoietic damage by AZT in drinking water (Example 8); assay type: in vivo, Balb/C female mice
Experimental: Forty-two Balb/C female mice, each weighing approximately 19 grams, were divided into three different groups of 14 animals each. The three groups were: basal (no AZT, no treatment), control (AZT, water), and TAU (AZT, TAU at 460 mg/kg/treatment). AZT was administered ad libitum in the drinking water at a concentration of 1.5 mg/ml throughout the course of the experiment. The volume of AZT solution consumed in all treatment groups was similar and averaged 2.25 ml per day per mouse, resulting in a daily AZT dose of about 170 mg/kg per day. Water and TAU were administered in a volume of 0.2 mL three times per day for the first 24 days of the study, and twice each day thereafter.
All of the animals were weighed on the day the experiment began, once each week, and immediately prior to sacrifice. After weighing the mice on days 24 and 35, blood (0.2–0.3 ml) was collected from seven mice in each group by retro-orbital bleeding into EDTA for subsequent differential blood cell counting, including reticulocytes. Mice were then sacrificed by cervical dislocation; their right femurs removed and the contents expelled for cell counting; and their spleens removed and weighed.

[2] = system: CD8F1 spontaneous breast tumors; test: TAU/uridine rescue with PALA-MTX-5-FU-LV combination chemotherapy in tumor-bearing mice (Example 6); assay type: in vivo, male CD8F1 mice; conditions: PALA-MTX-5-FU-LV weekly x3
Experimental: Forty male CD8F1 mice with transplanted CD8F1 spontaneous breast tumors (initial tumor weight of 155 mg) were treated weekly with the following regimen:
In order to evaluate and compare the efficacy of TAU and uridine, the mice were divided into four groups of ten animals each.
Saline, uridine, or TAU was administered every eight hours for a total of 5 treatments starting two hours after each weekly dose of 5-FU. This weekly regimen was repeated for three successive weeks. One week after the third course of chemotherapy regimen, mortality in each group was assessed and, where a sufficient number of animals survived, body weight and tumor weight were also measured.

[3] = system: hematopoietic system (5-FU toxicity); test: Acyl derivatives of uridine i.p. vs bone marrow toxicity of 5-FU (Example 3); assay type: in vivo, female Balb/C mice; conditions: for HCT % / Lym / Neut / RBC / WBC: eleven days after 5-FU
Experimental: Ninety-eight female Balb/C mice weighing approximately 20 grams each were given a one-time 150 mg/kg injection (i.p.) of 5-FU at 1 p.m. on the initial day of the study. […] All of these doses are equimolar, and were administered in a volume of 0.4 ml by i.p. injection. The groups were treated at 3:30, 6:00, and 8:30 p.m. on the initial day with their respective agents. […] On days seven and eleven following 5-FU administration, blood (0.2–0.3 ml) was collected from seven mice in each group by retro-orbital bleeding into EDTA for subsequent differential blood cell counting. Mice were sacrificed by cervical dislocation; their right femurs removed and the contents expelled for cell counting; and their spleens removed and weighed.

[4] = system: CD8F1 spontaneous mammary adenocarcinoma; test: TAU/uridine rescue with 5-FU alone in tumor-bearing mice (Example 5); assay type: in vivo
Experimental: Sixty CD8F1 (BALB/C×[…]) female mice with first generation transplants of CD8F1 spontaneous mammary adenocarcinoma were treated with a weekly chemotherapy regimen which included a single dose of 5-FU (150 mg/kg) followed by various rescue strategies. The average tumor size was 157 mg at the start of the chemotherapy. The weekly chemotherapy course was completed three times.
In order to evaluate the various rescue therapies, the animals were divided into six groups of ten animals each as follows: […]

[5] = system: hematopoietic system (5-FU toxicity); test: Oral TAU vs uridine rescue from 5-FU hematologic toxicity (Example 1); assay type: in vivo, female Balb/C mice
Experimental: Forty-five female Balb/C mice (20 grams each) were given 5-fluorouracil (150 mg/kg, i.p.) at 12:00 noon on the initial day of the experiment. These animals were then divided into 5 groups: control (water, p.o.), oral uridine at 400 mg/kg/dose, oral uridine at 800 mg/kg/dose, parenteral (i.p.) uridine at 400 mg/kg/dose, and oral TAU at 500 mg/kg/dose.
Two hours after administration of 5-FU, the rescue treatments with uridine or triacetyluridine were begun. Groups received their designated treatment at 2:00 p.m., 4:00 p.m., and 6:00 p.m. on the day of 5-FU administration, and at 9 a.m., 11:00 a.m., 1:00 p.m., 3:00 p.m. and 5:00 p.m. on the following day. Each dose of uridine or TAU was administered in 0.2 ml of water by gavage or in 0.2 ml of saline by i.p. injection, as appropriate.
Mice were sacrificed by cervical dislocation; femurs were removed, and their cell contents were expelled for counting; spleens were also removed and weighed. […]

[6] = day 24, AZT in drinking water + oral TAU 460 mg/kg/treatment
[7] = day 35, AZT in drinking water + oral TAU 460 mg/kg/treatment
[8] = oral uridine 4,000 or equimolar TAU 6,066 mg/kg every 8 h x5
[9] = day seven after 5-FU, TAU 455 mg/kg/treatment i.p.
[10] = 5-FU 150 mg/kg i.p. weekly x3 + oral uridine 5,000 or equimolar TAU 7,582 mg/kg
[11] = 7 days after 5-FU 150 mg/kg i.p., oral, Urd 400 or equimolar TAU 500 mg/kg/dose
[12] = 7 days after 5-FU, oral, Urd 400 or equimolar TAU 500 mg/kg/dose
[13] = 11 days after 5-FU, oral, Urd 400 or equimolar TAU 500 mg/kg/dose
[14] = 5-FU 150 mg/kg i.p. weekly x3 + uridine 3,500 mg/kg i.p.
[15] = 7 days after 5-FU, Urd 400 mg/kg/dose i.p.
[16] = 7 days after 5-FU, Urd 800 mg/kg/dose oral
[17] = 11 days after 5-FU, Urd 400 mg/kg/dose i.p.
[18] = 11 days after 5-FU, Urd 800 mg/kg/dose oral

## CC(=O)OC[C@H]1O[C@@H](n2ccc(=O)[nH]c2=O)[C@H](OC(C)=O)[C@@H]1OC(C)=O [TAU, triacetyluridine]
[1]; day 7, AZT […] in drinking water + oral TAU 460 mg/kg/treatment
  Body weights: 19.51±0.38 grams
[1]; [6]
  RBC counts: 9.01±0.09
  Total neutrophil counts: 0.91±0.06
[1]; [7]
  HCT: 41.26 ± .62 percentage
  HGB: 15.14 ± .12 gm/dl
  MCH (mean cell hematocrit): 18.49 ± .28 picograms
  MCV: 50.41 ± .48 fL
  PLT: 809 ± 06 K/μl
  RBC: 8.20 ± .20 M/μl
  reticulocyte levels: 0.371 ×10^6 per microliter
[2]; oral TAU 6,066 mg/kg
  Average Final Tumor Weight: 162 mg
[2]; [8]
  Mortality: 1/10
[3]; [9]
  bone marrow cellularity: 4.50±77 ×10^3 per microliter
  increase of bone marrow cellularity over control values: 40%
[3]; equimolar i.p. doses
  HCT %: 35.01 ± 1.2%
  Lym: 5.6 ± .4 K/μl
  Neut: .55 ± K/μl
  RBC: 7.35 ± .2 M/μl
  WBC: 6.23 ± .55 K/μl
[4]; [10]
  Average Final Tumor Weight: 1,013 mg
  Mortality: 1/10
[5]; [11]
  WBC: 5.9 ± .4 K/μl
[5]; [12]
  Lymphocytes: 4.72 ± .36 K/μl
  Marrow cell counts: 3.0 ± .5 × 10^6 × 10^6/femur
  Neutrophils: 1.20 K/μl
  Platelets: 723 K/μl
  RBC: 8.27 ± .16 M/μl
  Spleen weight: 78 ± 3.5 mg
[5]; [13]
  Lymphocytes: 3.29 ± .36 K/μl
  Neutrophils: 1.89 K/μl
  Platelets: 1446 K/μl
  RBC: 8.05 M/μl
  Spleen weight: 143 ± 11 mg
  WBC: 5.4 ± .5 K/μl

## O=c1ccn([C@@H]2O[C@H](CO)[C@@H](O)[C@H]2O)c(=O)[nH]1 [Urd, uridine]
[2]; [8]
  Mortality: 5/10
[2]; uridine 3,500 mg/kg i.p.
  Average Final Tumor Weight: 110 mg
[2]; uridine 3,500 mg/kg i.p. every 8 h x5
  Mortality: 0/10
[3]; day eleven after 5-FU, equimolar i.p. doses, in mg
  Spleen weights: 121.6±9.7
[3]; day seven after 5-FU 150 mg/kg i.p., i.p. doses equimolar to uridine 300 mg/kg/treatment
  Spleen weight: 80.4 ± 7.8 mg
[3]; day seven after 5-FU, equimolar i.p. doses
  Platelet counts: 785.3±57.5 ×10^3 per microliter
[3]; equimolar i.p. doses
  HCT %: 34.67 ± 0.9%
  Lym: 4.6 ± .4 K/μl
  Neut: .60 ± K/μl
  RBC: 7.32 ± .2 M/μl
  WBC: 5.20 ± .47 K/μl
[4]; [10]
  Average Final Tumor Weight: 896 mg
  Mortality: 0/10
[4]; [14]
  Average Final Tumor Weight: 1,604 mg
  Mortality: 1/10
[5]; [11]
  WBC: 4.4 ± .5 K/μl
[5]; [15]
  Lymphocytes: 3.80 ± .30 K/μl
  Marrow cell counts: 5.0 ± .7 × 10^6 × 10^6/femur
  Neutrophils: 0.83 ± .24 K/μl
  Platelets: 773 K/μl
  RBC: 8.06 ± .05 M/μl
  Spleen weight: 78 ± 5.5 mg
  WBC: 4.6 ± .4 K/μl
[5]; [16]
  Lymphocytes: 3.76 ± .27 K/μl
  Marrow cell counts: 2.9 ± .9 × 10^6 × 10^6/femur
  Neutrophils: 0.88 ± .22 K/μl
  Platelets: 646 K/μl
  RBC: 8.24 ± .26 M/μl
  Spleen weight: 74 ± 6.4 mg
  WBC: 4.6 ± .4 K/μl
[5]; [12]
  Lymphocytes: 3.01 ± .77 K/μl
  Marrow cell counts: 1.6 ± .2 × 10^6 × 10^6/femur
  Neutrophils: 0.48 ± .23 K/μl
  Platelets: 434 K/μl
  RBC: 7.66 ± .12 M/μl
  Spleen weight: 74 ± 2.4 mg
[5]; [17]
  Lymphocytes: 3.84 ± .38 K/μl
  Neutrophils: 1.20 ± .21 K/μl
  Platelets: 1706 K/μl
  RBC: 7.78 ± .22 M/μl
  Spleen weight: 104 ± 6 mg
  WBC: 5.1 ± .5 K/μl
[5]; [18]
  Lymphocytes: 4.07 ± .38 K/μl
  Neutrophils: 0.82 ± .19 K/μl
  Platelets: 2127 K/μl
  RBC: 7.33 ± .16 M/μl
  Spleen weight: 99 ± 6 mg
  WBC: 4.9 ± .4 K/μl
[5]; [13]
  Lymphocytes: 3.65 ± .27 K/μl
  Neutrophils: 0.84 ± .19 K/μl
  Platelets: 1940 K/μl
  RBC: 7.44 ± .14 M/μl
  Spleen weight: 103 ± 15 mg
  WBC: 4.6 ± .5 K/μl
